Experimental findings from PubChem BioAssay (NCI) are described below.

Test systems include A498 renal; HT29 colon; K-562 leukemia; KM20L2 colon; LXFL 529 NSCLC; TK-10 renal; U251 CNS; UACC-257 melanoma; XF 498 CNS; T-47D breast.
Assay in all cases: NCI tumour cell line growth inhibition, 48 h

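1) Cells in 96-well plates. 2) Compound, 48 h, 5 concentrations. 3) Linear interpolation between surrounding doses. 4) Unreached endpoint = highest concentration. GI50 marks 50% less growth. TGI: concentration producing complete growth inhibition.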

On to `COc1cc(/C=C\c2ccc(O)cc2)cc(OC)c1OC`, for which the TGI with A498 renal, with HT29 colon, in the assay on K-562 leukemia, in the assay on KM20L2 colon, in the assay with LXFL 529 NSCLC and in the assay on TK-10 renal was over 100 µM each time. Further, the figures for the TGI with U251 CNS, in the assay with UACC-257 melanoma and in the assay with XF 498 CNS were over 23.6 µM, over 100 µM and over 100 µM, respectively.
On to `Clc1ccc(CNc2nc3ccccc3nc2-c2cccs2)c(Cl)c1`, for which the TGI with HT29 colon, with K-562 leukemia, with KM20L2 colon, in the assay on LXFL 529 NSCLC, with TK-10 renal and in the assay with U251 CNS was over 100 µM each time. The TGI with UACC-257 melanoma and with XF 498 CNS was over 100 µM throughout.
As for `O=C1c2ccccc2-c2cccc3ccc(Cc4ccccc4)c1c23`, the TGI in the assay with HT29 colon, in the assay with K-562 leukemia, in the assay with KM20L2 colon, with LXFL 529 NSCLC, in the assay on TK-10 renal and in the assay with U251 CNS was over 100 µM throughout. The TGI in the assay with UACC-257 melanoma and in the assay on XF 498 CNS was over 100 µM throughout.
Regarding `CCOc1cccc2nc3cccc(C(=O)NCCN(C)C)c3nc12`, the TGI was 2.26 µM in the assay on A498 renal; 7.14 µM with HT29 colon; 2.62 µM in the assay with K-562 leukemia; 5.48 µM with KM20L2 colon; over 21.9 µM in the assay with LXFL 529 NSCLC; 7.9 µM with TK-10 renal. In addition, the TGI came to 9.26 µM with U251 CNS, 6.45 µM in the assay on UACC-257 melanoma and 3.52 µM in the assay with XF 498 CNS.
On to `O=C1CCn2c([nH]c3cccc4cccc2c43)=N1`, for which the TGI with HT29 colon, with K-562 leukemia, in the assay with KM20L2 colon, in the assay with LXFL 529 NSCLC, in the assay on TK-10 renal and with U251 CNS was over 100 µM in each case. In addition, the TGI with UACC-257 melanoma and in the assay with XF 498 CNS was over 100 µM throughout.
As to `CC/C=C\C/C=C\C1CC(=O)NCCCNCCCCN1` (stereo not drawn), the TGI in the assay with HT29 colon, with KM20L2 colon, in the assay with LXFL 529 NSCLC, in the assay with TK-10 renal, with U251 CNS and in the assay on UACC-257 melanoma was over 100 µM in each case.
For `CC(C)(C)C1(O)Cc2ccccc2C(=O)O1` (stereo not drawn), the TGI in the assay on A498 renal, in the assay on HT29 colon, with K-562 leukemia, with KM20L2 colon, with LXFL 529 NSCLC and in the assay on TK-10 renal was over 100 µM in each case. Also, the TGI in the assay with U251 CNS and with UACC-257 melanoma was over 100 µM in each case.
Take `CC1(C)OC(=O)C=C([O-])O1.CC1(C)OC(=O)C=C([O-])O1.O=c1c(O)c(-c2ccc([O-])cc2[O-])oc2cc(O)cc(O)c12.[Ti+4]`: the values for the GI50 in the assay with A498 renal, in the assay with KM20L2 colon and in the assay with LXFL 529 NSCLC were 58.1 µM, over 100 µM and over 100 µM, respectively. For the same molecule, the TGI in the assay with A498 renal, in the assay on HT29 colon, in the assay with K-562 leukemia, in the assay on KM20L2 colon, in the assay with LXFL 529 NSCLC and in the assay on TK-10 renal was over 100 µM throughout. The molecule further gave a TGI with UACC-257 melanoma of over 100 µM.
For the molecule `N#Cc1c(N)c(C(=O)O)nn(-c2cccc(C(F)(F)F)c2)c1=O`, the TGI in the assay with A498 renal, with HT29 colon, in the assay with K-562 leukemia, in the assay on KM20L2 colon, with LXFL 529 NSCLC and with TK-10 renal was over 100 µM each time. Also, the TGI in the assay with U251 CNS and in the assay on XF 498 CNS was over 100 µM each time.
Regarding `Cc1ncc(NC(=O)c2ccc(CN3CCN(C)CC3)c(C(F)(F)F)c2)cc1Nc1nccc(-c2cccnc2)n1`, the GI50 is 20.1 µM in the assay on A498 renal; 2.81 µM in the assay on HT29 colon; 17.9 µM with T-47D breast; 21.6 µM in the assay on TK-10 renal; 15.9 µM in the assay on U251 CNS; 14.4 µM in the assay with UACC-257 melanoma. Further, the TGI in the assay on A498 renal was 34.9 µM; with HT29 colon it was 21.8 µM; in the assay on K-562 leukemia, over 100 µM; in the assay with T-47D breast, 37.5 µM; in the assay with TK-10 renal, 39.1 µM; with U251 CNS, 29.9 µM. In the assay on UACC-257 melanoma, this molecule showed a TGI of 27.9 µM.
As to `C[C@H]1CCC/C=C/[C@@H]2C[C@H](N)C[C@H]2[C@H](O)/C=C/C(=O)O1`, the GI50 was 67.9 µM in the assay with A498 renal; over 100 µM in the assay on HT29 colon; over 100 µM with K-562 leukemia; over 100 µM in the assay with T-47D breast; over 100 µM with TK-10 renal; over 100 µM in the assay with U251 CNS. For the same molecule, the GI50 in the assay on UACC-257 melanoma was over 100 µM. The TGI with A498 renal, in the assay on HT29 colon, with K-562 leukemia, in the assay with T-47D breast, with TK-10 renal and in the assay on U251 CNS was over 100 µM in each case. This molecule also yielded a TGI in the assay on UACC-257 melanoma of over 100 µM.
`COc1ccc(C2=NC(C)(C)CO2)cc1`: the TGI in the assay on A498 renal, with HT29 colon, in the assay with K-562 leukemia, with KM20L2 colon, with TK-10 renal and with U251 CNS was over 100 µM throughout. Moreover, the TGI in the assay on UACC-257 melanoma and with XF 498 CNS was over 100 µM throughout.
For `CCCSc1cc(Cl)nc(N)n1`, the GI50 in the assay with A498 renal, in the assay on HT29 colon, with K-562 leukemia, in the assay on T-47D breast, in the assay on TK-10 renal and in the assay on U251 CNS was over 100 µM in each case. In addition, in the assay on UACC-257 melanoma, the GI50 is over 100 µM. The TGI in the assay on A498 renal, in the assay on HT29 colon, with K-562 leukemia, in the assay with T-47D breast, with TK-10 renal and in the assay on U251 CNS was over 100 µM throughout. The same molecule showed a TGI in the assay on UACC-257 melanoma of over 100 µM.
For the molecule `O=c1c2ccccc2c2c3c1cccc3c1cccc3c(=O)c4ccccc4c2c31`, the TGI in the assay on A498 renal, with HT29 colon, in the assay on K-562 leukemia, with KM20L2 colon, with LXFL 529 NSCLC and with TK-10 renal was over 100 µM each time. Further, the TGI in the assay with U251 CNS and with UACC-257 melanoma was over 100 µM each time.
On to `Nc1ccc(SC23CC4CC(CC(C4)C2)C3)cc1`, for which the TGI with A498 renal, in the assay on HT29 colon, in the assay with K-562 leukemia, with T-47D breast, in the assay on TK-10 renal and with U251 CNS was over 100 µM throughout. The TGI in the assay on UACC-257 melanoma is over 100 µM.
